Holding throughout (assay): NCI anticancer screen, dose series, 48 h
Test [1] relates to SNB-19 CNS.
For test [2], the system named is CCRF-CEM leukemia.
Test [3] relates to UACC-62 melanoma.
Test [4] concerns OVCAR-3 ovarian.
The subject of test [5] is MOLT-4 leukemia.
Test [6] concerns SF-268 CNS.
The subject of test [7] is RXF 393 renal.
Test [8] relates to IGROV1 ovarian.
The subject of test [9] is SNB-75 CNS.
Test [10] has as its system NCI-H226 lung.

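48-hour exposure; five concentrations; linearly interpolated endpoints. Here, GI50 denotes the concentration required for 50% inhibition of growth. Definition used: TGI = concentration required for complete inhibition of growth.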

Take `COc1ccc(-c2nn(-c3ccc(NC(=O)Nc4ccc(Cl)c(Cl)c4)cc3)cc2-c2ccncc2)cc1Cl`: the GI50 in test [1] was 3.36 µM; in test [2], 2.09 µM; in test [3] it was 2.1 µM; in [4], 2.64 µM; in [5], 1.89 µM; in test [6], 4.19 µM. Further, the GI50 is 0.862 µM in [7], 3.44 µM in test [8], 1.17 µM in [9] and 3.49 µM in test [10]. The TGI is greater than 100 µM in test [1]; greater than 100 µM in test [2]; 7.33 µM in [3]; greater than 100 µM in [4]; greater than 100 µM in test [5]; greater than 100 µM in [6]. In addition, the TGI in test [7] was 2.89 µM; in test [8], greater than 100 µM; in [9] it was greater than 100 µM; in test [10], greater than 100 µM.
Take `Nc1cc(S(=O)(=O)O)cc2cc(S(=O)(=O)O)c(N=Nc3ccc(-c4ccc(N=Nc5c(S(=O)(=O)O)cc6cc(S(=O)(=O)O)cc(N)c6c5O)cc4)cc3)c(O)c12`: the TGI in test [1], in test [2], in test [4], in [5], in test [6] and in test [7] was greater than 100 µM in each case. For the same compound, the TGI in test [8], in test [9] and in [10] was greater than 100 µM throughout.
As to `C/C1=N\NC(=O)c2ccccc2C(=O)N/N=C(\C)c2cccc1n2.O=[N+]([O-])[O-].[Zn+2]`, the TGI in [1], in [2], in test [3], in test [4], in [5] and in test [6] was greater than 100 µM in each case. Besides, the TGI in [8] and in [9] was greater than 100 µM each time.
Regarding `O=Nc1ccc(O)c2ncccc12`, the TGI in [1] was 74.7 µM; in test [2], greater than 100 µM; in [3], 2.34 µM; in [4], 12.4 µM; in [5] it was greater than 100 µM; in test [6], 17.2 µM. Moreover, the TGI in [7] stood at 5.61 µM; in [8], 18.9 µM; in test [9] it was 8.48 µM; in [10], 42.8 µM.
In the case of `O=C(O)CC(C(=O)O)C1c2ccccc2-c2ccccc21` (configuration not stated), the TGI in [1], in test [2], in [3], in test [4], in test [5] and in test [6] was greater than 100 µM in each case. Moreover, the TGI in test [7], in test [8] and in test [10] was greater than 100 µM each time.
As for `CC(C)=CCc1c(O)ccc2c1OC1c3ccc(O)c(CC=C(C)C)c3OCC21` (configuration not stated), the TGI is 27.6 µM in test [1]; 43 µM in [2]; 18.7 µM in test [3]; 27 µM in test [4]; 16 µM in test [5]; 27 µM in [6]. For the same compound, the TGI came out at 22.1 µM in [7], 25.8 µM in test [8], 33.9 µM in test [9] and 30.7 µM in [10].
`O=[N+]([O-])c1ccc(/C=N\Nc2ccc([N+](=O)[O-])cn2)cc1`: the TGI in [1], in test [2], in test [3], in test [4], in test [5] and in test [6] was greater than 100 µM in each case. For the same compound, the TGI in test [7], in test [8], in [9] and in test [10] was greater than 100 µM throughout.
In the case of `c1ccc(-n2cnnc2-c2nsc3ccccc23)cc1`, the TGI in [1], in test [2], in test [3], in test [4], in [5] and in [6] was greater than 100 µM in each case. Also, the TGI in [7], in [8] and in test [9] was greater than 100 µM throughout.
On to `COc1cc(C(C)(C)C)cc(OC)c1C(O)(c1c(OC)cc(C(C)(C)C)cc1OC)c1c(OC)cc(C(C)(C)C)cc1OC`, for which the results for the GI50 in test [4], in test [7] and in [8] were 0.278 µM, 0.324 µM and 0.316 µM, respectively. The TGI in test [4] was determined as 0.894 µM; in test [7], 0.871 µM; in test [8] it was 0.873 µM.
In the case of `CN1CCC(C(=O)NNc2ccccc2)CC1`, the TGI in [1] was greater than 100 µM; in test [2] it was greater than 100 µM; in test [3], greater than 33.7 µM; in [4], greater than 100 µM; in test [5] it was greater than 100 µM; in test [6], greater than 100 µM. For the same compound, the TGI in [7], in test [8], in test [9] and in [10] was greater than 100 µM in each case.
For `COc1ccc2[nH]c3c([N+](=O)[O-])ccc(Cl)c3c(=O)c2c1`, the TGI in test [1] was greater than 80.9 µM; in test [2], 10.2 µM; in test [3], 34.5 µM; in test [4] it was 31.7 µM; in test [5] it was 12.8 µM; in [6], 53.6 µM. The TGI in [7] is 32.2 µM; in [8], 18.6 µM; in [10], greater than 100 µM.
Regarding `N=C(N)c1ccc(-c2ccc(-c3cncc4ccccc34)s2)cc1F`, the GI50 in test [4] was 1.73 µM; in [7] it was 1.75 µM; in test [9] it was 1.73 µM. Moreover, the values for the TGI in [4], in test [7] and in [9] were 3.24 µM, 3.67 µM and 3.14 µM, respectively.
Consider `C=C1C(=O)OC2/C=C(\C)C(=O)CC3OC(C)(C)OC3(C)CC(OC(=O)/C(C)=C/C)C12` (configuration not stated), for which the TGI in [1] was greater than 100 µM; in test [2], greater than 21.8 µM; in test [3], 27.8 µM; in [4], greater than 56.5 µM; in test [5], 37.2 µM; in [6], greater than 61.3 µM. The TGI in test [7] is 36.7 µM; in test [8], 32.3 µM; in [9] it was greater than 72.9 µM; in [10], 63.6 µM.
With `Cc1ccc(P(c2ccc(C)cc2)c2ccc(C)cc2)cc1`, the TGI in [1] was greater than 100 µM; in test [2], 46.5 µM; in test [3], 52.3 µM; in [4], 29.5 µM; in test [5], 44.5 µM; in test [6], greater than 100 µM. The results for the TGI in test [7], in [8] and in test [9] were 30 µM, 53.6 µM and 49.5 µM, respectively.
`OC(Cc1ccccc1)(Cc1ccccc1)c1ccccc1`: the TGI in test [1] is 67.9 µM; in test [2], greater than 100 µM; in test [3], 31.3 µM; in [4], 32.8 µM; in test [5] it was greater than 100 µM; in test [6], 29.8 µM. Moreover, the TGI stood at 29.3 µM in test [7], 33.7 µM in [8] and 34.2 µM in test [10].
With `C=C(C)C(=O)OC1C(C(C)CCCO)=C(CO)CC2OC(=O)C(=C)C21` (configuration not stated), the TGI was greater than 100 µM in [1]; greater than 100 µM in test [2]; 31.9 µM in [3]; 54.5 µM in [4]; 88.9 µM in test [5]; 48.8 µM in [6]. Further, the TGI in test [7] was 27.2 µM; in test [8], 38.8 µM; in [9], 40.5 µM; in [10], greater than 100 µM.
Regarding `CC(C)(C)C1(c2ccc(C3(c4ccccc4)Oc4ccccc4S3)[nH]2)Oc2ccccc2S1` (configuration not stated), the TGI in [1], in [2], in [3], in [4], in test [5] and in test [6] was greater than 100 µM in each case. Also, the TGI in test [7], in [8] and in test [10] was greater than 100 µM throughout.
For the compound `C=C1CC23CCC4C(C)(C(=O)O)CCCC4(C)C2CCC1C3` (configuration not stated), the TGI in test [1], in test [2], in test [3], in test [4], in test [6] and in test [7] was greater than 100 µM in each case. Besides, the TGI in [8] is 94.9 µM; in test [9], greater than 100 µM; in test [10], greater than 100 µM.
